We go through 15 molecules from ChEMBL document CHEMBL4373734, “Overcoming imatinib resistance in chronic myelogenous leukemia cells using non-cytotoxic cell death modulators” (Eur J Med Chem, 2020).

A short description of series [1]: Solubility of compound in water at >20 uM. In kind it is physicochemical. To be noted: buffer.
Series [2] in a line: Cytotoxicity against human HS5 cells assessed as cell death at 10 uM after 72 hrs by propidium iodide/Triton-X100 dye based FACS analysis. (In general: Flow cytometry measures light scatter and fluorescence of single cells or particles in a stream.)
Series [3] concerns K562-IMA[r]. Nature of the series: Induction of sensitization to imatinib-induced cytotoxicity in imatinib-resistant human K562-IMA[r] cells assessed as induction of cell death at 10 uM after 72 hrs in presence of 1 uM imatinib by propidium iodide/Triton-X100 dye based FACS analysis. In kind it is functional.
For a further series, the system named is K562. The series is described as follows: Cytotoxicity against human K562 cells assessed as cell death at 10 uM after 72 hrs by propidium iodide/Triton-X100 dye based FACS analysis. To be noted: k562, 72 h.
Series [4] deals with K562-IMA[r]. Nature of the series: Cytotoxicity against imatinib-resistant human K562-IMA[r] cells assessed as cell death at 10 uM after 72 hrs by propidium iodide/Triton-X100 dye based FACS analysis.
Series [5] addresses T1, Peroxisome proliferator-activated receptor gamma (Homo sapiens) (UniProt P37231).
T1 sequence (whole entry): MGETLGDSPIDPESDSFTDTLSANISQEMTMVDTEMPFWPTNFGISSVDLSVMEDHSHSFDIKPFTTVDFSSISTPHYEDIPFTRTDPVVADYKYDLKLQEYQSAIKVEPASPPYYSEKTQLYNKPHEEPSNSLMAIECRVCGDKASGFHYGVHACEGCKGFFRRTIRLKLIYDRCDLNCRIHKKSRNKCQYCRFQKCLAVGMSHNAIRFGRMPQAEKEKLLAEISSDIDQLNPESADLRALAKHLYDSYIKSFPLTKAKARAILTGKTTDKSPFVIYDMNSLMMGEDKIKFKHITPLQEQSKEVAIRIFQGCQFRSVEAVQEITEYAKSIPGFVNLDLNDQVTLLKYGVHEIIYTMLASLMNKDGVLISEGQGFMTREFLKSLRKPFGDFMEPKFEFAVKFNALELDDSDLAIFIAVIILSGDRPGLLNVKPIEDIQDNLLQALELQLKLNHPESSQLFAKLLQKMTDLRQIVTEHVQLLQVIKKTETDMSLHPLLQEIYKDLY
Nature of the series: Transactivation of Gal4-fused human PPARgamma transfected in COS7 cells co-transfected with pGAL5-TK-pGL3 and pRennilla-CMV assessed as maximum intrinsic activation at 20 uM incubated for 39 hrs by dual luciferase reporter assay. In kind it is cell-based. For orientation: In a reporter assay the amount or activity of a reporter protein is the signal.

Series [6] concerns the target T1, Peroxisome proliferator-activated receptor gamma (Homo sapiens). Nature of the series: Transactivation of Gal4-fused human PPARgamma transfected in COS7 cells co-transfected with pGAL5-TK-pGL3 and pRennilla-CMV assessed as maximum intrinsic activation at 10 uM incubated for 39 hrs by dual luciferase reporter assay relative to pioglitazone. It is filed as cell-based.

Series [7] is described as follows: Solubility of compound in DMSO at 10 uM by microscopic analysis. In kind it is physicochemical.
The next series relates to COS-7. Nature of the series: Cytotoxicity against African green monkey COS7 cells assessed as effect on cell metabolic activity at 20 uM after 72 hrs by MTT assay. It is filed as ADME, cell-based. As to conditions: chlorocebus aethiops, cos-7, 72 h.
Series [8] addresses T2, Peroxisome proliferator-activated receptor gamma (Homo sapiens, UniProt P37231).
T2 sequence (P37231 whole entry): T1 sequence (whole entry)
Nature of the series: Transactivation of Gal4-fused human PPARgamma transfected in COS7 cells co-transfected with pGAL5-TK-pGL3 and pRennilla-CMV incubated for 39 hrs by dual luciferase reporter assay. In kind it is cell-based.

Series [9] relates to K562-IMA[r]. Nature of the series: Induction of sensitization to imatinib-induced cytotoxicity in imatinib-resistant human K562-IMA[r] cells assessed as induction of cell death at 10 uM after 72 hrs in presence of 1 uM imatinib by propidium iodide/Triton-X100 dye based FACS analysis (reference value: 15%). In kind it is functional.
The subject of series [10] is K562-IMA[r]. The series is described as follows: Induction of sensitization to imatinib induced cytotoxicity in imatinib-resistant human K562-IMA[r] cells assessed as cell death up to 2.5 uM measured after 72 hrs in presence of 1 uM imatinib by propidium iodide/Triton-X100 dye based FACS analysis. It is filed as functional.
In series [11] the test system is K562-IMA[r]. The series is described as follows: Induction of sensitization to imatinib-induced cytotoxicity in imatinib-resistant human K562-IMA[r] cells assessed as induction of cell death measured after 72 hrs in presence of 1 uM imatinib by propidium iodide/Triton-X100 dye based FACS analysis. It is filed as functional.
Series [12] relates to K562-IMA[r]. Nature of the series: Cytotoxicity against imatinib-resistant human K562-IMA[r] cells assessed as induction of cell death at 10 uM after 72 hrs by propidium iodide/Triton-X100 dye based FACS analysis relative to control.
Series [13] has as its system K562-IMA[r]. The series is described as follows: Induction of sensitization to imatinib-induced cytotoxicity in imatinib-resistant human K562-IMA[r] cells assessed as gain in cell death rate at 5 uM measured after 72 hrs in presence of 1 uM imatinib by propidium iodide/Triton-X100 dye based FACS analysis relative to imatinib-treated control. It is filed as functional.

SMILES strings stand for the structures. The source made the active and inactive calls. No cut-off for these calls is given here. Where only a bound is given, the exact number is not on record here.

For the molecule `CCCc1nc2c(O)cccc2n1Cc1ccc(-c2ccccc2C(N)=O)cc1`, the solubility entry is on record as “Insoluble” in [1] and “Soluble” in series [7]. Moreover, the Activity entry (in series [2]; in the series with K562; in the series with K562-IMA[r] [4]; with COS-7) was “Non-Toxic” throughout. Also, the result in the series with K562-IMA[r] [3] was Active. Also, the Intrinsic activity entry in series [5] was “inactive”. In addition, in [6], the Intrinsic activity came to 20.5%.

Consider `CCCc1nc2c(C(F)(F)F)cccc2n1Cc1ccc(-c2ccccc2C(=O)O)cc1`, for which the Activity result (in [2]; in the series with K562; in the series on K562-IMA[r] [4]; with COS-7) was “Non-Toxic” throughout. In the series with K562-IMA[r] [3], the outcome was Active. For the same molecule, the Intrinsic activity in series [6] was 29.5%. Besides, the EC50 – broadly, the concentration needed to bring the measured effect to its halfway point – in series [8] came to 12.1 µM. For the same molecule, in series [7], the solubility entry was “Soluble”.

As to `CCCc1nc2c(N)cccc2n1Cc1ccc(-c2ccccc2C(N)=O)cc1`, the solubility result in series [1] is “Insoluble”; in [7], “Soluble”. Also, the Activity entry (in [2]; in the series on K562; in the series on K562-IMA[r] [4]; with COS-7) was “Non-Toxic” each time. The outcome in the series with K562-IMA[r] [3] was Active. Also, the Intrinsic activity entry in [5] is “inactive”. In addition, the Intrinsic activity in [6] came to 25.1%.

Consider `CCCc1nc2c([N+](=O)[O-])cccc2n1Cc1ccc(-c2ccccc2C(=O)O)cc1`, for which the Activity result (in series [2]; in the series with K562; in the series on K562-IMA[r] [4]; in the series on COS-7) was “Non-Toxic” each time. The outcome in the series with K562-IMA[r] [3] was Active. For the same molecule, the Intrinsic activity in [6] is 0.42%. Besides, the solubility result in [7] is listed as “Soluble”.

Consider `CCCc1nc2c(N)cccc2n1Cc1ccc(-c2ccccc2C(=O)O)cc1`, for which the Activity entry (in series [2]; in the series with K562; in the series with K562-IMA[r] [4]; in the series on COS-7) was “Non-Toxic” each time. Also, the result in the series with K562-IMA[r] [3] was Active. Also, the Intrinsic activity in series [6] was 15.7%. Further, the solubility entry in series [7] was “Soluble”.

On to `CCCc1nc2c(OC)cccc2n1Cc1ccc(-c2ccccc2C(=O)O)cc1`, for which the Activity result (in series [2]; with K562; with K562-IMA[r] [4]; in the series on COS-7) was “Non-Toxic” throughout. In addition, the result in the series with K562-IMA[r] [3] was Active. Moreover, the Intrinsic activity in series [6] was found to be 17.9%. In addition, the solubility result in series [7] was “Soluble”.

Regarding `CCCc1nc2c(C)cccc2n1Cc1ccc(-c2ccccc2C(N)=O)cc1`, the Activity was 62 - 78% with K562-IMA[r] [9]; “Non-Toxic” in series [2]; “Dose-dependent effect” in the series with K562-IMA[r] [11]; under 20% in the series on K562-IMA[r] [12]; “Non-Toxic” in the series with K562; 11.2% in the series on K562-IMA[r] [13]. For the same molecule, the Activity result in the series with COS-7 is given as “Non-Toxic”. The solubility result in series [1] is reported as “Insoluble”; in [7], “Soluble”. For the same molecule, in the series with K562-IMA[r] [10], the result was inactive. The Intrinsic activity entry in series [5] was “inactive”. In [6], the Intrinsic activity came out at 19.6%.

For `CCCc1nc2c(C)cc(-c3nc4ccccc4n3C)cc2n1Cc1ccc(-c2ccccc2C(=O)O)cc1` [TELMISARTAN], the outcome in the series with K562-IMA[r] [3] was Active. For the same molecule, the Intrinsic activity in series [5] amounted to 78%; in series [6], 59.1%. In [8], this molecule displayed an EC50 of 4.28 µM.

As for `CCCc1nc2c(Cl)cccc2n1Cc1ccc(-c2ccccc2C(N)=O)cc1`, the Activity is 62 - 78% with K562-IMA[r] [9]; “Non-Toxic” in series [2]; “Dose-dependent effect” with K562-IMA[r] [11]; under 20% with K562-IMA[r] [12]; “Non-Toxic” in the series with K562; 15.3% in the series with K562-IMA[r] [13]. In the series with COS-7, the Activity entry was “Non-Toxic”. In addition, the solubility entry in [1] is given as “Insoluble”; in series [7], “Soluble”. Further, the result in the series on K562-IMA[r] [10] was inactive. For the same molecule, the Intrinsic activity result in series [5] is “inactive”. The Intrinsic activity in [6] stood at 21.1%.

For `CCCc1nc2c(C(F)(F)F)cccc2n1Cc1ccc(-c2ccccc2C(N)=O)cc1`, the Activity in the series on K562-IMA[r] [9] was 62 - 78%; in [2], “Non-Toxic”; in the series on K562-IMA[r] [11], “Dose-dependent effect”; in the series on K562-IMA[r] [12] it was under 20%; in the series on K562 it was “Non-Toxic”; with K562-IMA[r] [13], 7.1%. In addition, the Activity entry in the series with COS-7 was “Non-Toxic”. Besides, the solubility entry in series [1] is given as “Insoluble”; in [7] it was “Soluble”. The outcome in the series with K562-IMA[r] [10] was inactive. The Intrinsic activity entry in [5] is “inactive”. Besides, the Intrinsic activity in series [6] worked out at 19.5%.

As for `CCCc1nc2c([N+](=O)[O-])cccc2n1Cc1ccc(-c2ccccc2C(N)=O)cc1`, the values for the solubility result in series [1] and in series [7] were “Insoluble” and “Soluble”, respectively. In addition, the Activity result (in series [2]; with K562; in the series on K562-IMA[r] [4]; in the series with COS-7) was “Non-Toxic” each time. For the same molecule, the outcome in the series on K562-IMA[r] [3] was Active. The Intrinsic activity entry in series [5] is “inactive”. Besides, the Intrinsic activity in series [6] worked out at 7.15%.

Take `CCCc1nc2c(OC)cccc2n1Cc1ccc(-c2ccccc2C(N)=O)cc1`: the figures for the solubility entry in [1] and in series [7] were “Insoluble” and “Soluble”, respectively. The Activity entry (in series [2]; in the series with K562; with K562-IMA[r] [4]; in the series on COS-7) was “Non-Toxic” throughout. Besides, in the series on K562-IMA[r] [3], the result was Active. For the same molecule, the Intrinsic activity result in series [5] was “inactive”. For the same molecule, the Intrinsic activity in series [6] is 13.3%.

As to `CCCc1nc2c(O)cccc2n1Cc1ccc(-c2ccccc2C(=O)O)cc1`, the Activity entry (in series [2]; in the series with K562; in the series with K562-IMA[r] [4]; with COS-7) was “Non-Toxic” each time. In addition, the outcome in the series with K562-IMA[r] [3] was Active. For the same molecule, in series [6], the Intrinsic activity amounted to 14.4%. The solubility entry in [7] is reported as “Soluble”.

On to `CCCc1nc2c(C)cccc2n1Cc1ccc(-c2ccccc2C(=O)O)cc1`, for which the Activity result (in series [2]; in the series on K562; in the series with K562-IMA[r] [4]; in the series with COS-7) was “Non-Toxic” in each case. In addition, the outcome in the series on K562-IMA[r] [3] was Active. Moreover, the Intrinsic activity in series [6] was 54.3%. In series [8], this molecule displayed an EC50 of 11.1 µM. For the same molecule, in [7], the solubility entry is “Soluble”.

On to `CCCc1nc2c(F)cccc2n1Cc1ccc(-c2ccccc2C(N)=O)cc1`, for which the Activity in the series on K562-IMA[r] [9] is 62 - 78%; in series [2] it was “Non-Toxic”; in the series with K562-IMA[r] [11] it was “Dose-dependent effect”; in the series on K562-IMA[r] [12] it was under 20%; with K562 it was “Non-Toxic”; in the series with K562-IMA[r] [13], 8.1%. Also, the Activity entry with COS-7 was “Non-Toxic”. Also, the results for the solubility result in [1] and in [7] were “Insoluble” and “Soluble”, respectively. Also, in the series on K562-IMA[r] [10], the outcome was inactive. Further, in [5], the Intrinsic activity result is “inactive”. The Intrinsic activity in [6] was found to be 33.3%.
